The text below walks through data of patent publication US12383608B2, “WT1 helper peptides and combinations of WT1 helper peptide and conjugate of cancer antigen peptides” (Sumitomo Pharma Co., Ltd., priority 2016, dated 2025).

In this experiment the test system is HLA-A*02:01 transgenic mouse (C57BL/6CrHLA-A2.1DR1). In words: In vivo CTL induction in HLA-A*02:01 transgenic mouse (IFNγ ELISPOT assay on splenocytes). The settings on record: Montanide ISA 51 VG, intradermal; for Effect of the cocktail vaccine comprising the peptide on the CTL induction by the compound of formula (4): cocktail vaccine: helper peptide (170-315 μg per site) + compound of formula (4) (250 μg per site), molar ratio 1:1.13-1.15 or equimolar, compared with compound of formula (4) alone; for CTL induction by the cocktail vaccine comprising the peptide in addition to the compound of formula (4) (increase in number of CTLs): cocktail vaccine: helper peptide + compound of formula (4), compared with the vaccine comprising the compound of formula (4). How it is done: The HLA-A*02:01 transgenic mouse (C57BL/6CrHLA-A2.1DR1) lacks mouse MHC, and instead expresses a chimeric IILA of a human MHC, HLA-A*02:01 with a mouse MHC, H-2Db, and HLA-DRB1*01:01.
The solution was diluted with water for injection to a concentration of 10 mg/ml, and then converted to an emulsion by addition of an equal volume of Montanide ISA 51 VG. […] One week after the administration, the mice were sacrificed with CO2 gas. Splenocytes were harvested from spleens removed from the mice. For detecting IFNγ-producing splenocytes, an IFNγ ELISPOT assay kit was used. In particular, an ELISPOT plate was treated with an anti-mouse-IFNγ antibody on the day before preparation of the splenocyte samples. On the next day, the plate was blocked by treatment with an RPMI 1640 medium with 10% FBS. To the blocked ELISPOT plate, the splenocyte samples from the HLA-A*02:01 transgenic mice were added at 1.25×10^5 cells/well. For in vitro stimulation of the cells, the peptide of SEQ ID NO: 15 was dissolved in DMSO at a concentration of 40 mg/ml, diluted with RPMI 1640 with 10% FBS to 40 μg/ml, and added to the splenocyte-containing wells at a final concentration of 10 μg/ml. The plate was incubated for 17 hours at 37° C. under an atmosphere of 5% CO2. Then, after removal of the culture medium from the wells, the ELISPOT plate was subjected to treatment for cell staining in accordance with the manufacturer's protocol. Stained spots were counted on ImmunoSpot Analyzer (C.T.L.).
The scale on the vertical axis of the graph of FIG. 1 indicates the number of cells (CTLs) which produced IFNγ in response to the stimulation with the peptide of SEQ ID NO: 15. The compound and the peptide administered to the mice are described under the bars. […] Therefore, effect of each vaccine in CTL induction is known from the difference in cell count between the black bar and the white bar. When no IFNγ is produced by cells in the absence of the stimulation with SEQ ID NO: 15, a white bar cannot have a height.
The solution was diluted with water for injection to a concentration of 10 mg/ml, and then converted to an emulsion by addition of an equal volume of Montanide ISA 51 VC.
(§1) The solution was diluted with water for injection to a concentration of 10 mg/ml, and then converted to an emulsion by addition of an equal volume of Montanide ISA 51 VG.
as §1, §1, §1, §1, §1, §1, §1, §1, §1

With KLSHLQMHSRKHTGE [SEQ ID NO: 14], the “Effect of the cocktail vaccine comprising the peptide on the CTL induction by the compound of formula (4)” value (“Effect” below) is given as “enhanced” and the “CTL induction by the cocktail vaccine comprising the peptide in addition to the compound of formula (4) (increase in number of CTLs)” value (“CTL induction … (increase in number of CTLs)” below) is recorded as “highly effective in CTL induction”.
Consider GCNKRYFKLSHL [SEQ ID NO: 46], for which the “Effect” value is on record as “enhanced” and the “CTL induction … (increase in number of CTLs)” value is “highly effective in CTL induction”.
Consider AYPGCNKRYFKLSHLQMHSRK [SEQ ID NO: 44], for which the “Effect” value was “enhanced” and the “CTL induction … (increase in number of CTLs)” value is listed as “highly effective in CTL induction”.
Consider AYPGCNKRYFKLSHL [SEQ ID NO: 2], for which the “Effect” value is reported as “enhanced” and the “CTL induction … (increase in number of CTLs)” value was “highly effective in CTL induction”.
As for RYFKLSHLQMHSRK [SEQ ID NO: 39], the “Effect” value was “enhanced” and the “CTL induction … (increase in number of CTLs)” value is given as “highly effective in CTL induction”.
Turning to AYPGCNKRYFKLSHLQMH [SEQ ID NO: 43], the “Effect” value is recorded as “enhanced” and the “CTL induction … (increase in number of CTLs)” value is on record as “highly effective in CTL induction”.
YFKLSHLQMHSRKHT [SEQ ID NO: 12]: the “Effect” value was “enhanced” and the “CTL induction … (increase in number of CTLs)” value was “highly effective in CTL induction”.
Take PGCNKRYFKLSHLQMHSRK [SEQ ID NO: 5]: the “Effect” value is “enhanced” and the “CTL induction … (increase in number of CTLs)” value is “highly effective in CTL induction”.
For RYFKLSHLQMHSRKHT [SEQ ID NO: 48] the same measures were “enhanced” and “highly effective in CTL induction”.
As for RYFKLSHLQMH [SEQ ID NO: 45], the “Effect” value is listed as “enhanced” and the “CTL induction … (increase in number of CTLs)” value is listed as “highly effective in CTL induction”.
As to YPGCNKRYFKLSHLQ [SEQ ID NO: 3], the “Effect” value was “enhanced” and the “CTL induction … (increase in number of CTLs)” value is reported as “highly effective in CTL induction”.
On to KRYFKLSHLQMHSRK [SEQ ID NO: 9], for which the “Effect” value is recorded as “enhanced” and the “CTL induction … (increase in number of CTLs)” value is listed as “highly effective in CTL induction”.
Take “CNKRYFKLSHLQMHSRK [SEQ ID NO: 7, reference compound]”: the “Effect” value is recorded as “enhanced” and the “CTL induction … (increase in number of CTLs)” value is given as “highly effective in CTL induction”.
As to FKLSHLQMHSRKHTG [SEQ ID NO: 13], the “Effect” value is “enhanced” and the “CTL induction … (increase in number of CTLs)” value was “highly effective in CTL induction”.
With RYFKLSHLQMHSRKHTGE [SEQ ID NO: 49], the “Effect” value is listed as “enhanced” and the “CTL induction … (increase in number of CTLs)” value is “highly effective in CTL induction”.
Consider “PGCNKRYFKLSHLQMHSRKHTG [SEQ ID NO: 4, reference compound]”, for which the “Effect” value is recorded as “enhanced” and the “CTL induction … (increase in number of CTLs)” value is “highly effective in CTL induction”.
GCNKRYFKLSHLQMHSRK [SEQ ID NO: 6]: the “Effect” value is “enhanced” and the “CTL induction … (increase in number of CTLs)” value is given as “highly effective in CTL induction”.
In the case of NKRYFKLSHLQMHSRK [SEQ ID NO: 8], the “Effect” value is given as “enhanced” and the “CTL induction … (increase in number of CTLs)” value is “highly effective in CTL induction”.
In the same order, the values of “KRYFKLSHLQMHSRKH [SEQ ID NO: 10, reference compound]” are “enhanced” and “highly effective in CTL induction”.
Regarding RYFKLSHLQMHSRKH [SEQ ID NO: 11], the “Effect” value was “enhanced” and the “CTL induction … (increase in number of CTLs)” value is recorded as “highly effective in CTL induction”.
